Source: the NIST ThermoML archive (doi:10.1016/j.fluid.2006.09.024)
Numbers after ± are expanded uncertainties.

Legend:
[1] = Liquid, Ebulliometric method (Recirculating still)
[2] = xn = mol fraction of the nth substance listed; details: 101 kPa, Liquid

C1C[C@@H]2[C@@H]3CC[C@@H](C3)[C@@H]2C1 [endo-tetrahydrodicyclopentadiene]
[1]
Details | vapor or sublimation pressure [kPa]
344.02 K | 2 ± 0.2
358.17 K | 3.5 ± 0.2
367.23 K | 5 ± 0.2
384.68 K | 10 ± 0.2
396.77 K | 15 ± 0.2
405.51 K | 20 ± 0.2
412.5 K | 25 ± 0.2
418.51 K | 30 ± 0.2
423.84 K | 35 ± 0.2
428.42 K | 40 ± 0.2
432.64 K | 45 ± 0.2
436.48 K | 50 ± 0.2
440.06 K | 55 ± 0.2
443.43 K | 60 ± 0.2
446.4 K | 65 ± 0.2
451.93 K | 75 ± 0.2
454.45 K | 80 ± 0.2
456.82 K | 85 ± 0.2
458.86 K | 90 ± 0.2
460.9 K | 95 ± 0.2
462.76 K | 100 ± 0.2
463.6 K | 101.6 ± 0.2

C1C[C@@H]2[C@@H]3CC[C@@H](C3)[C@@H]2C1 [endo-tetrahydrodicyclopentadiene] + C1C[C@@H]2[C@H]3CC[C@H](C3)[C@@H]2C1
[2]
Details | kinematic viscosity, 288.15 K [m2/s] | kinematic viscosity, 298.15 K [m2/s] | kinematic viscosity, 308.15 K [m2/s] | kinematic viscosity, 318.15 K [m2/s] | mass density, 288.15 K [kg/m3] | mass density, 298.15 K [kg/m3] | mass density, 308.15 K [kg/m3] | mass density, 318.15 K [kg/m3]
x2 = 0.4028 | 6.06e-06 ± 1.6e-07 | 4.7e-06 ± 1.3e-07 | 3.67e-06 ± 1.1e-07 | 2.99e-06 ± 8.7e-08 | 954.39 ± 0.27 | 946.44 ± 0.29 | 938.48 ± 0.3 | 930.47 ± 0.32
x2 = 0.5145 | 5.23e-06 ± 1.5e-07 | 4.1e-06 ± 1.2e-07 | 3.23e-06 ± 9.4e-08 | 2.67e-06 ± 7.8e-08 | 951.54 ± 0.27 | 943.63 ± 0.29 | 935.68 ± 0.31 | 927.69 ± 0.32
x2 = 0.6017 | 4.62e-06 ± 1.3e-07 | 3.68e-06 ± 1.1e-07 | 2.96e-06 ± 8.6e-08 | 2.46e-06 ± 7.3e-08 | 949.22 ± 0.28 | 941.29 ± 0.29 | 933.37 ± 0.31 | 925.41 ± 0.33
x2 = 0.6956 | 4.18e-06 ± 1.2e-07 | 3.35e-06 ± 9.7e-08 | 2.72e-06 ± 8e-08 | 2.29e-06 ± 6.8e-08 | 946.72 ± 0.28 | 938.85 ± 0.3 | 930.9 ± 0.31 | 923 ± 0.33
x2 = 0.7966 | 3.86e-06 ± 1.1e-07 | 3.06e-06 ± 8.9e-08 | 2.49e-06 ± 7.3e-08 | 2.12e-06 ± 6.3e-08 | 944.23 ± 0.29 | 936.36 ± 0.3 | 928.49 ± 0.32 | 920.59 ± 0.33
x2 = 0.9069 | 3.47e-06 ± 1e-07 | 2.82e-06 ± 8.2e-08 | 2.31e-06 ± 6.8e-08 | 1.97e-06 ± 5.9e-08 | 941.57 ± 0.29 | 933.78 ± 0.31 | 925.9 ± 0.32 | 918.06 ± 0.34
x2 = 0.9933 | 3.18e-06 ± 9.2e-08 | 2.65e-06 ± 7.8e-08 | 2.22e-06 ± 6.6e-08 | 1.87e-06 ± 5.6e-08 | 939.58 ± 0.29 | 931.79 ± 0.31 | 923.99 ± 0.32 | 916.14 ± 0.34

C1C[C@@H]2[C@H]3CC[C@H](C3)[C@@H]2C1 [exo-tetrahydrodicyclopentadiene]
[1]
Details | vapor or sublimation pressure [kPa]
335.45 K | 2 ± 0.2
349.97 K | 3.5 ± 0.2
360.37 K | 5 ± 0.2
379.33 K | 10 ± 0.2
391.56 K | 15 ± 0.2
400.07 K | 20 ± 0.2
407.31 K | 25 ± 0.2
413.28 K | 30 ± 0.2
418.87 K | 35 ± 0.2
423.1 K | 40 ± 0.2
427.5 K | 45 ± 0.2
431.46 K | 50 ± 0.2
434.98 K | 55 ± 0.2
438.26 K | 60 ± 0.2
441.37 K | 65 ± 0.2
444.02 K | 70 ± 0.2
447.09 K | 75 ± 0.2
449.62 K | 80 ± 0.2
452.19 K | 85 ± 0.2
454.39 K | 90 ± 0.2
456.75 K | 95 ± 0.2
458.83 K | 100 ± 0.2
459.38 K | 101.4 ± 0.2
